Laboratory results taken from patent US6271342A, “Sugar-modified cytostatics” (Bayer Aktiengesellschaft, priority 1995, dated 2001).
≈ marks a conversion by molar mass, not a printed value. Read-outs that look alike come from different tables or passages of the source.

What was measured:
HT 29 [1] = experiment: Growth inhibition test (MTT) for cytotoxic properties; format: cell-based, human
How it was run: (§1)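 SW 480 and HT 29 cells in RPMI 1640 with 10% FCS were seeded at 50,000 cells/ml, grown 1 day at 37 °C, then exposed to compound added in DMSO. MTT (5 mg/ml stock) was applied after day 3 and day 6 for 5 h, and formazan absorbance was read at 540 nm. IC50 values reported.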

SW 480 [2] = experiment: as above; format: cell-based, human
How it was run: as §1

B 16 F 10 = experiment: as above; format: cell-based, mouse; details: Table 1b
Description: Growth Inhibition Test for Determination of the Cytotoxic Properties of Glycoconjugates of Batracyline and of Quinolone-a
The human colon cell lines SW 480 and HT 29 (ATCC no. CCL 228 and HBT-38) and the mouse melanoma cell line B 16 F 10 were cultured in Roux dishes in RPMI 1640 medium with addition of 10% FCS. The cultures were then trypsinized and taken up in RPMI plus 10% FCS to a cell count of 50,000 cells/ml. 100 μl of cell suspension/well were introduced into a 96 microwell plate and incubated for 1 day at 37° C. in a CO2 incubating cabinet. A further 100 μl of RPMI medium and 1 μl of dimethyl sulphoxide with the test substances were then added. The growth was checked after day 3 and day 6. 40 μl of MTT solution (3-(4,5-dimethylthiazol-2-yl)-2,5-diphenyltetrazoline bromide) with an initial concentration of 5 mg/ml of H2 O were added to each microwave. The plate was incubated for 5 hours in a CO2 incubating cabinet at 37° C. The medium was then sucked off and 100 μl of i-propanol/well were added. After shaking for 30 minutes with 100 μl of H2 O, the extinction was measured at 540 nm with a Titertek Multiskan MCC/340 (Flow).

[3] = system: bone marrow parent cells of the mouse; experiment: CSF-induced proliferation of bone marrow parent cells, in vitro; format: cell-based; details: recombinant murine GM-CSF, 7 days
Description: Bone marrow cells are flushed out of the femur of mice. 10^5 cells are incubated in McCoy SA medium (0.3% agar) together with recombinant murine GM-CSF (Genzyme; parent cell colony formation) and the substances (10^-4 to 100 μg/ml) at 37° C. and 7% CO2. 7 days later, the colonies ([…]) and clusters (17-50 cells) are counted.

[4] = Acute toxicity, single administration; format: in vivo, nu/nu naked mice; details: for acute toxicity detected: dose of 400 mg/kg; for acute toxicity detected / individual dose of the substances which can be tolerated: single administration; for Individual dose tolerated in mg/kg of mouse, i.v.: aqueous solution; for Individual dose tolerated in mg/kg of mouse, i.p.: single administration i.p., solution in dimethyl sulphoxide
Description: Determination of the Acute Toxicity of Glycoconjugates of Batracyline (Single Administration)
The acute toxicity of the batracyline derivatives was determined on nu/nu naked mice.
The substances administered i.v., as aqueous solutions, and the substances administered i.p., as solutions in dimethyl sulphoxide, were injected once in concentrations of up to 400 mg of substance per kg of mouse.
The individual dose tolerated was calculated from the decrease in the weight of the animals up to 21 days after administration and from the number of animals surviving.

SW-480 [5] = experiment: Cleavage kinetics with cells (HPLC); details: Table 2a; 37° C.; * = cleavage product is N-[D-alanyl]-batracyline
Description: Cleavage Kinetics With Cells
(§9) 2.25 ml of PBS are incubated together with 225 μl of a cell suspension (30 mg/ml) and 25 μl of substrate stock solution (1 mg/ml in 3% dimethyl sulphoxide in PBS) at 37° C. After 1 hour and 24 hours, samples of in each case 1 ml are taken, mixed with 1 ml of ethanol and left to stand at 4° C. for 20 minutes. After centrifugation (5 minutes at 3500 rpm), 100 μl of supernatant are taken for the HPLC analysis.

hepatoma [6] = experiment: Cleavage kinetics with cells (HPLC); details: Table 2a; 37° C.; * = cleavage product is N-[D-alanyl]-batracyline
Description: Cleavage Kinetics With Cells
as §9

[7] = Cleavage kinetics with human blood (HPLC); format: in vitro ADME; details: 37° C.
Source text: In Vitro Investigation of the Cleavability of the Glycoconjugates
Cleavage Kinetics With Human Blood

SW-480 [8] = system: SW-480
Description: Cleavage Kinetics With Cells
as §9

hepatoma [9] = system: hepatoma
Description: Cleavage Kinetics With Cells
as §9

CXF 280 = experiment: Two-layer soft agar culture of human tumour xenografts; format: cell-based; details: T/C ≤30%
Description: (§2) The in vitro activity of glycoconjugates of quinolone-a was determined on human tumour xenografts in a two-layer soft agar culture system according to Hamburger and Salmon (Science 197: 461-463).
(§3) The solid tumours were initially grown in the athymic naked mouse (NMRI nu/nu), obtained by surgery and comminuted mechanically. Individual cells were then obtained by incubation in an enzyme mixture of collagenase 0.05%, DNAse 0.07% and hyaluronidase 0.1% in RPMI at 37° C. for 30 minutes. The cells were washed 2× and then passed through a sieve of 200 μm and 20 μm mesh width.
(§4) The base layer comprises 0.2 ml of Iscoves's Modified Dulbeccos Medium with 20% foetal calf serum and 0.7% agar. 40,000 to 200,000 cells in 0.2 ml of the same medium and 0.4% agar were applied to this layer in 24 multiwell plates. The cytostatic substances were added in 0.2 ml of medium.
(§5) The cultures were incubated at 37° C. in a 7% CO2 atmosphere for 6 to 15 days. The colonies which had grown were then counted under an inverting microscope, the living colonies being stained with a tetrazolium chloride dyestuff 24 hours before the evaluation.
(§6) The effect of the active compound is expressed in per cent of surviving colonies compared with the colony count of untreated plates (T/C=colony count treated×100/control count untreated).
(§7) A substance is active if the T/C value is ≤30%.
(§8) This value is shown as the IC70 value in μg/ml in Table 8.

HT 29 [10] = experiment: as above; format: cell-based; details: T/C ≤30%
Description: as §2, §3, §4, §5, §6, §7, §8

LXFL 529 = experiment: as above; format: cell-based; details: T/C ≤30%
Description: as §2, §3, §4, §5, §6, §7, §8

LXFS 538 = experiment: as above; format: cell-based; details: T/C ≤30%
Description: as §2, §3, §4, §5, §6, §7, §8

MEXF 989 = experiment: as above; format: cell-based; details: T/C ≤30%
Description: as §2, §3, §4, §5, §6, §7, §8

OVXF 1023 = experiment: as above; format: cell-based; details: T/C ≤30%
Description: as §2, §3, §4, §5, §6, §7, §8

OVXF 899 = experiment: as above; format: cell-based; details: T/C ≤30%
Description: as §2, §3, §4, §5, §6, §7, §8

SW 480 [11] = experiment: as above; format: cell-based; details: T/C ≤30%
Description: as §2, §3, §4, §5, §6, §7, §8

[12] = Table 1a, glycoconjugates of batracyline
[13] = Table 2a, * = cleavage product is N-[D-alanyl]-batracyline

Compound | IC50 (HT 29 [1]; Table 1b) [µM] | IC50 (SW 480 [2]; Table 1b) [µM] | IC50 (B 16 F 10) [µM] | IC50 (HT 29 [1]; [12]) [µM] | IC50 (SW 480 [2]; [12]) [µM] | individual dose of the substances which can be tolerated [4] | Individual dose tolerated in mg/kg of mouse, i.v. ([4]; single administration i.v.) | % cleavage in SW-480 1 hour (SW-480 [5]) [%] | % cleavage in SW-480 24 hours (SW-480 [5]) [%] | % cleavage in hepatoma 1 hour (hepatoma [6]) [%] | % cleavage in hepatoma 24 hours (hepatoma [6]) [%] | Individual dose tolerated in mg/kg of mouse, i.p. [4] | further results
COC1C(O)C(C)OC(Oc2ccc(NC(=S)NC(CCCCN)C(=O)NC3C=CC(C)C4CN(c5cc6c(cc5F)c(=O)c(C(=O)O)c5scc(C)n56)CC34)cc2)C1O.Cl (mixture of isomers) [Example 14.4, N-{N^α -[O-(3-O-Methyl-β-L-fucopyranosyl)-4-hydroxy-phenylamino-thiocarbonyl]-D-lysyl}-quinolone-c, hydrochloride] | 1 | 1.5 | 0.4 |  |  |  |  |  |  |  |  |  | IC50 [μg/ml] CSF-induced proliferation of bone marrow parent cells of the mouse [3]: 3.6 µg/mL
CC(NC(=O)C(CCCCNC(=S)Nc1ccc(OC2OC(C)C(O)C(OCC(=O)[O-])C2O)cc1)NC(=S)Nc1ccc(OC2OC(C)C(O)C(OCC(=O)[O-])C2O)cc1)C(=O)Nc1ccc2nc3n(c(=O)c2c1)Cc1ccccc1-3.[Na+].[Na+] [Example 6.12, N-{N^α,N^ε -Bis-[O-(3-O-carboxymethyl-β-L-fucosyl)-4-hydroxy-phenylamino-thiocarbonyl]-lysyl-D-alanyl}-batracyline, di-sodium salt] |  |  |  | 50 | 35 | more than 200 mg of substance per kg of mouse | > 400 mg/kg of mouse | 0 | 0 | 0 | 0 |  | acute toxicity detected [4]: no acute toxicity
CO[C@H]1[C@H](O)[C@@H](Oc2ccc(NC(=S)NCCCC[C@H](NC(=S)Nc3ccc(O[C@H]4O[C@@H](C)[C@@H](O)[C@@H](OC)[C@@H]4O)cc3)C(=O)N[C@@H](C)C(=O)NC3C=CCC4CN(c5c(F)cc6c(=O)c(C(=O)O)cn(C7CC7)c6c5Cl)CC43)cc2)O[C@@H](C)[C@H]1O (stereo partly drawn) [Example 11.2, N-{N^α,N^ε -Bis-[O-(3-O-methyl-β-L-fucosyl)-4-hydroxy-phenylamino-thiocarbonyl]-lysyl-alanyl}-quinolone-a] |  | 30 | 9 |  |  |  |  |  |  |  |  |  | % cleavage in human blood 1 hour ([7]; Table 2b): 0%; % cleavage in human blood 24 hours ([7]; Table 2b): 0%; IC50 [μg/ml] CSF-induced proliferation of bone marrow parent cells of the mouse [3]: 22.5 µg/mL; % cleavage in SW-480 1 hour (SW-480 [8]): 0%; % cleavage in SW-480 24 hours (SW-480 [8]): 0%; % cleavage in hepatoma 1 hour (hepatoma [9]): 0%; % cleavage in hepatoma 24 hours (hepatoma [9]): 0%
CO[C@H]1[C@H](O)[C@@H](Oc2ccc(NC(=S)NCCCC[C@H](NC(=S)Nc3ccc(O[C@H]4O[C@@H](C)[C@@H](O)[C@@H](OC)[C@@H]4O)cc3)C(=O)NC3C=CCC4CN(c5c(F)cc6c(=O)c(C(=O)O)cn(C7CC7)c6c5Cl)CC43)cc2)O[C@@H](C)[C@H]1O (stereo partly drawn) [Example 11.6, N-{N^α,N^ε -Bis-[O-(3-O-methyl-β-L-fucosyl)-4-hydroxy-phenylamino-thiocarbonyl]-lysyl}-quinolone-a] | 9 | 8 | 5 |  |  |  |  |  |  |  |  |  | % cleavage in human blood 1 hour ([7]; Table 2b): 0%; % cleavage in human blood 24 hours ([7]; Table 2b): 11%; % cleavage in SW-480 1 hour (SW-480 [8]): 0%; % cleavage in SW-480 24 hours (SW-480 [8]): 8%; % cleavage in hepatoma 1 hour (hepatoma [9]): 0%; % cleavage in hepatoma 24 hours (hepatoma [9]): 12%
COC1C(O)C(C)OC(Oc2ccc(NC(=S)NC(CCCCN)C(=O)NC3C=CCC4CN(c5c(F)cc6c(=O)c(C(=O)O)cn(C7CC7)c6c5Cl)CC43)cc2)C1O [Example 12.5, N-{N^α -[O-(3-O-Methyl-β-L-fucosyl)-4-hydroxy-phenylamino-thiocarbonyl]-lysyl}-quinolone-a] | 4 | 1 | 0.2 |  |  |  |  |  |  |  |  |  | IC70 /μg/ml (CXF 280): < 0.3 µg/mL; IC70 /μg/ml (HT 29 [10]): 11 µg/mL (≈ 12.8 µM); IC70 /μg/ml (LXFL 529): 2 µg/mL (≈ 2.33 µM); IC70 /μg/ml (LXFS 538): < 0.3 µg/mL; IC70 /μg/ml (MEXF 989): 0.5 µg/mL (≈ 0.583 µM); IC70 /μg/ml (OVXF 1023): 9 µg/mL (≈ 10.5 µM); IC70 /μg/ml (OVXF 899): 55 µg/mL (≈ 64.1 µM); IC70 /μg/ml (SW 480 [11]): 10 µg/mL (≈ 11.7 µM)
N-{N^α,N^ε -Bis-[O-(3-O-methyl-β-L-fucosyl)-4-hydroxy-phenylamino-thiocarbonyl]- lysyl-D-alanyl}-batracyline [Example 6.2] |  |  |  | 50 | 40 | more than 200 mg of substance per kg of mouse |  | 0 | 0 | 0 | 0 | > 400 mg/kg of mouse | acute toxicity detected [4]: no acute toxicity
N-{N^ε -[O-(3-O-Carboxymethyl-β-L-fucosyl)-4-hydroxy-phenylamino-thiocarbony l]-lysyl-D-alanyl}-batracyline, sodium salt [Example 3.9] |  |  |  | 55 | 40 | more than 200 mg of substance per kg of mouse | 200 mg/kg of mouse | 28 | 100 | 32 | 100 | 200 mg/kg of mouse | % cleavage in human blood 1 hour [7, 13]: 0%; % cleavage in human blood 24 hours [7, 13]: 54%
N-{N^ε -[O-(3-O-Methyl-β-L-fucosyl)-4-hydroxy-phenylamino-thiocarbonyl]-lysy l-D-alanyl}-batracyline, trifluoroacetate [Example 3.4] |  |  |  | 65 | 100 |  | < 100 mg/kg of mouse | 74 |  | 98 |  | 200 mg/kg of mouse | animals died ([4]; single administration i.v.): 2
